# According to ChEMBL document CHEMBL1201862, “PubChem BioAssay data set” (2004):
# The source made the active and inactive calls.
# Legend:
# [1] = biological target: Ras and Rab interactor 1/Tyrosine-protein kinase ABL1 (Homo sapiens, UniProt P00519+Q13671); format: functional;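 further: biochemical TR-FRET dose-response test measuring inhibition of binding between Rin1 and Abl proteins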
# [2] = blockers of CRF-binding protein–CRF-R2 complex – cell-based, uHTS hits, 384-well, dose response (AID 651639); format: functional, Homo sapiens; conditions: read-out: IC50_Mean
# [3] = biological target: T1, Corticotropin-releasing factor receptor 2/Corticotropin-releasing factor-binding protein (Homo sapiens, UniProt P24387+Q13324); test: activators of CRF receptor 2 with binding protein – uHTS hits, confirmation (AID 602473); format: functional; conditions: read-out: EC50_Mean
# T1 sequence (Q13324 whole entry): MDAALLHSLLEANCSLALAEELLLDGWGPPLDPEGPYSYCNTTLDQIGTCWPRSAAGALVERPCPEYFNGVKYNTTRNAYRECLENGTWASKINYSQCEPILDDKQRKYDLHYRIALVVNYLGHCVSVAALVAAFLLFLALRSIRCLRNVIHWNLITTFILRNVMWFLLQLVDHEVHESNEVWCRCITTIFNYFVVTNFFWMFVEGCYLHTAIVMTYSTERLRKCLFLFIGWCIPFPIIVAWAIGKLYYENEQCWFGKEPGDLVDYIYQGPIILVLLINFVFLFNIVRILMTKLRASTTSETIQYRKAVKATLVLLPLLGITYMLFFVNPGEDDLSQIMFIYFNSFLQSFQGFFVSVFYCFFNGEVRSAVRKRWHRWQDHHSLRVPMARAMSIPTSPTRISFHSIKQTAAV
# T1 sequence (P24387 whole entry): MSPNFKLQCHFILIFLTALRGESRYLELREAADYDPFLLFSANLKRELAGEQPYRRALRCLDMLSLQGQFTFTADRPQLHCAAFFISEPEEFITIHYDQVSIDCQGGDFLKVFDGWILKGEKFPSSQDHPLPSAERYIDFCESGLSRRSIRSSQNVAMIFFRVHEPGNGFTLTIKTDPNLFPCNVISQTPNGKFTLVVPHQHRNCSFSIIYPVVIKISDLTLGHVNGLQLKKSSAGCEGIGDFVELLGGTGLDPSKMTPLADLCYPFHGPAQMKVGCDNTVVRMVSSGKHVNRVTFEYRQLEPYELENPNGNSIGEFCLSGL
# [4] = biological target: T1, Corticotropin-releasing factor receptor 2/Corticotropin-releasing factor-binding protein; test: Dose Response confirmation of uHTS hits for small molecule antagonists of the CRF-binding protein and CRF-R2 receptor complex.; format: functional; conditions: read-out: IC50_Mean
# INS1 = test: INS-1E survival protection against cytokine death – cell-based, luminescence, retest, dose response (AID 449756); format: functional; conditions: Rattus norvegicus;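 further: cell death triggered by IL-1 beta plus TNF-alpha plus IFN-gamma mixture; protective hits raise ATP signal compared with cytokine alone wells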
# [5] = reduction of Shn3 3'UTR-driven luciferase in osteoblasts – cell-based, Clone20 osteoblasts, firefly luciferase, cherry-picked, dose response (AID 624132); format: functional;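 further: firefly luciferase luminescence from reporter carrying the Shn3 3'UTR in osteoblasts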
# [6] = non-specific 3'UTR reporter inhibition in Clone20-Shn3RL – cell-based, Renilla luciferase, cherry-picked, counter-screen for Shn3 inhibitor project, dose response (AID 624133); format: functional
# Protein Wnt-3a = Protein Wnt-3a (Mus musculus, UniProt P27467); test: antagonism of Wnt3a pathway luciferase reporter – Wnt-LIGHT cells, luminescence, selectivity assay for Gli-SUFU antagonist project, dose response (AID 651570); format: functional; conditions: read-out: IC50_Mean;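 further: Wnt-LIGHT reporter cells stimulated with conditioned medium from Wnt3a-producing cells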
# Protein Wnt-3a, sequence (P27467 whole entry): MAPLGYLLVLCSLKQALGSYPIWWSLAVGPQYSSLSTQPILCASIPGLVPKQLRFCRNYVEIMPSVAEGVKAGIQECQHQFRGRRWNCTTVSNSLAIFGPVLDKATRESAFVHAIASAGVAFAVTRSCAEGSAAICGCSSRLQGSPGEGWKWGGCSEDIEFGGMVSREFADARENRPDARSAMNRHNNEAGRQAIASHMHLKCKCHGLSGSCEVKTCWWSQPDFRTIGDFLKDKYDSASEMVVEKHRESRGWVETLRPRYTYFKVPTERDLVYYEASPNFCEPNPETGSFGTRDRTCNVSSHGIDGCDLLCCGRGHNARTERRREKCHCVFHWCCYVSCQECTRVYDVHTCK
# [7] = loss of viability in HepG2 cells – cell-based, CellTiter-Glo, cherry-picked, cytotoxicity control for Shn3 inhibitor project, dose response (AID 624134); format: functional
# [8] = biological target: T2, Adenosylmethionine-8-amino-7-oxononanoate aminotransferase (Mycobacterium tuberculosis, UniProt P9WQ81); test: Mycobacterium tuberculosis BioA enzyme inhibitor Measured in Biochemical System Using Plate Reader - 2163-02_Inhibitor_Dose_CherryPick_Activity.; format: functional, Mycobacterium tuberculosis UT205
# T2 sequence (P9WQ81 whole entry): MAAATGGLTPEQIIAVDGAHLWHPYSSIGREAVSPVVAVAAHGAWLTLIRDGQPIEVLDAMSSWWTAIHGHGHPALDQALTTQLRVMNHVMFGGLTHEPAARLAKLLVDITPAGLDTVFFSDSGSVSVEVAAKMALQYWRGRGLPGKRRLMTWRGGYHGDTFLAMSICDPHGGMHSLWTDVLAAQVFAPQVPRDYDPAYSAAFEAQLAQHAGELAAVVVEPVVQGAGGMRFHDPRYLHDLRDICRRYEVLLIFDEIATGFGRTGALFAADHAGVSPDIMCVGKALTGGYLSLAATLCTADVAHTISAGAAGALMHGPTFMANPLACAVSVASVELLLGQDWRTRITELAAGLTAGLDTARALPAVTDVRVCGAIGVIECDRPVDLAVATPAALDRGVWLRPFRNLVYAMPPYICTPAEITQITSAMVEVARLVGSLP
# Vero [9] = test: cells; format: functional; conditions: Chlorocebus sabaeus
# [10] = viability of PTEN-deleted HCT116 cells – cell-based, HCT116 PTEN knockout, dose response (AID 1047); format: functional;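 further: HCT116 colon tumor cells with PTEN knocked out; cells exposed to compound for 60 hours before readout; potency for loss of cell viability measured by luminescence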
# BJ [11] = test: cells; format: functional, cell-based; conditions: Homo sapiens
# BJ [12] = test: growth inhibition of engineered Ras-driven BJ cells – cell-based, alamar blue fluorescence, cherrypicked samples, dose response (AID 2631); format: functional; conditions: Homo sapiens;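 further: confirmatory dose-response assay in RAS-dependent BJ fibroblasts engineered with TERT, LT and ST, with cytotoxicity read by fluorescence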
# BJ [13] = test: BJ-TERT fibroblast viability loss – cell-based, RAS-independent, luminescence, dose response (AID 1933); format: functional; conditions: Homo sapiens
# BJ [14] = test: BJ-TERT-LT-ST fibroblast viability loss – cell-based, RAS-independent, luminescence, dose response (AID 1935); format: functional; conditions: Homo sapiens;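 further: BJ fibroblasts immortalized with TERT plus LT and ST oncogenes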
# [15] = DRD fibroblast viability loss – cell-based, non-viral oncogenic, luminescence, dose response (AID 1934); format: functional; conditions: Homo sapiens
# Vero [16] = test: cells; format: functional, cell-based; conditions: Chlorocebus sabaeus
# [17] = viability of HCT116 lacking mutant beta-catenin – cell-based, human colon tumor, dose response (AID 1045); format: functional;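 further: HCT116 colon tumor cells with beta catenin knocked out; cells exposed to compound for 60 hours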
# [18] = Luminescence Cell-Based Dose Retest to Confirm Inhibitors of Cancer Stem Cells. [Related pubchem assays (depositor defined):AID2717, AID2721]; format: functional; conditions: Homo sapiens
# [19] = NIH-3T3 fibroblast cytotoxicity, dose response, cytotoxicity control, cell-based, fluorescence, Alamar Blue, secondary assay (AID 2327); format: functional;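 further: NIH-3T3 mouse fibroblasts cultured with fluconazole at 8 µg/mL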
# [20] = fluconazole-exposed Candida albicans growth modulators – fluorescence, retest, confirmation (AID 2467); format: functional, cell-based
# Aminopeptidase N = biological target: T3, Aminopeptidase N (Plasmodium falciparum FcB1/Columbia, UniProt O96935); test: malaria alanyl aminopeptidase activity blockers – biochemical, fluorogenic H-Leu-NHMec substrate, 1536-well (AID 1445); set-up: species or system Plasmodium falciparum 3D7, 3D7
# T3 sequence (O96935 whole entry): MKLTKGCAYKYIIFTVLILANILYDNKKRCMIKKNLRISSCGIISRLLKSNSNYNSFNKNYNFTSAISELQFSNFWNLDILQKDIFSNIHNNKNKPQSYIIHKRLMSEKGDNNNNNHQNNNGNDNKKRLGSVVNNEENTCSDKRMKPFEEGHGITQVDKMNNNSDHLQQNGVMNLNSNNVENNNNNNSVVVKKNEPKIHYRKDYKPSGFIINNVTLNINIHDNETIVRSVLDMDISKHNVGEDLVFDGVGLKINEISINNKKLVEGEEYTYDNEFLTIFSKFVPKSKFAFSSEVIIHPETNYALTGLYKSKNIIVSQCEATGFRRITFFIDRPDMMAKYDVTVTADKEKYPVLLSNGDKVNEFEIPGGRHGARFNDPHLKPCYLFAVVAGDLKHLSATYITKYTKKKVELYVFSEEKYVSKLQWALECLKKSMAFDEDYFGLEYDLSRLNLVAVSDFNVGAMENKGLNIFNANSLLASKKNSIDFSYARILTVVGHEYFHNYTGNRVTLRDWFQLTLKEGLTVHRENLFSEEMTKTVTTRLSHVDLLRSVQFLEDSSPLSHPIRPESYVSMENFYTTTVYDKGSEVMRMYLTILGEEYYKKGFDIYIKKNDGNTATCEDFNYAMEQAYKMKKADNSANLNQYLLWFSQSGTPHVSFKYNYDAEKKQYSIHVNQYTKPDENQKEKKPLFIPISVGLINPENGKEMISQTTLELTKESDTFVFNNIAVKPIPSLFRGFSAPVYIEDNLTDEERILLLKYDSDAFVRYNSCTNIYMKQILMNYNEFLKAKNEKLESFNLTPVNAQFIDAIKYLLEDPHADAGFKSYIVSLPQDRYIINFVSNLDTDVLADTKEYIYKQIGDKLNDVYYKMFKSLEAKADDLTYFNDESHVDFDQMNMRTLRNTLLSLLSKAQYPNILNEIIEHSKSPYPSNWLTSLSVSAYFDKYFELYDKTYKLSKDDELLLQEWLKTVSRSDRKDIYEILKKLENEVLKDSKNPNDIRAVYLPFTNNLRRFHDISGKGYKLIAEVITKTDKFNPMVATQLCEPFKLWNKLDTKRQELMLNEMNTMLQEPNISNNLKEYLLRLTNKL
# [21] = biological target: T4, DNA repair protein RAD52 homolog (Homo sapiens, UniProt P43351); format: functional, biochemical
# T4 sequence (P43351 whole entry): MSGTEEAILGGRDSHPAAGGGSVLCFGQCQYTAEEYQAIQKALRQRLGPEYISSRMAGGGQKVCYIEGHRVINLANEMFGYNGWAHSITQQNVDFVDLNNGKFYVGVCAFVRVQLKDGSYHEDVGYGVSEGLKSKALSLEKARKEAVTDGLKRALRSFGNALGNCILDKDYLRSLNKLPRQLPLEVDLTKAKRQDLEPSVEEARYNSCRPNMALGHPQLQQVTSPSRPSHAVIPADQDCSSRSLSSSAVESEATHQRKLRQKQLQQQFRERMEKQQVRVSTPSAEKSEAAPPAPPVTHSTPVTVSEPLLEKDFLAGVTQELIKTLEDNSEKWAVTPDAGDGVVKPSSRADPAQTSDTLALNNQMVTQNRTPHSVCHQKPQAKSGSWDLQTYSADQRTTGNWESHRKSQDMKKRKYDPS
# Nonstructural protein 1 = Nonstructural protein 1 (Influenza A virus, UniProt Q194T2); format: functional, Influenza A virus (A/California/07/2009(H1N1))
# Nonstructural protein 1, sequence (Q194T2 whole entry): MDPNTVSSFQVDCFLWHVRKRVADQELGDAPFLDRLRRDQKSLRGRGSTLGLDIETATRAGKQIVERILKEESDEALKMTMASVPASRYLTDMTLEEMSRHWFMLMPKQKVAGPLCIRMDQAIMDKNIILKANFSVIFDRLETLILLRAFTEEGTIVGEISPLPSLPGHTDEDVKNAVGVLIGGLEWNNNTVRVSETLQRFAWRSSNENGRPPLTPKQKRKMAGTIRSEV
# Ras and Rab interactor 1/Tyrosine-protein kinase ABL1, sequence (P00519 whole entry): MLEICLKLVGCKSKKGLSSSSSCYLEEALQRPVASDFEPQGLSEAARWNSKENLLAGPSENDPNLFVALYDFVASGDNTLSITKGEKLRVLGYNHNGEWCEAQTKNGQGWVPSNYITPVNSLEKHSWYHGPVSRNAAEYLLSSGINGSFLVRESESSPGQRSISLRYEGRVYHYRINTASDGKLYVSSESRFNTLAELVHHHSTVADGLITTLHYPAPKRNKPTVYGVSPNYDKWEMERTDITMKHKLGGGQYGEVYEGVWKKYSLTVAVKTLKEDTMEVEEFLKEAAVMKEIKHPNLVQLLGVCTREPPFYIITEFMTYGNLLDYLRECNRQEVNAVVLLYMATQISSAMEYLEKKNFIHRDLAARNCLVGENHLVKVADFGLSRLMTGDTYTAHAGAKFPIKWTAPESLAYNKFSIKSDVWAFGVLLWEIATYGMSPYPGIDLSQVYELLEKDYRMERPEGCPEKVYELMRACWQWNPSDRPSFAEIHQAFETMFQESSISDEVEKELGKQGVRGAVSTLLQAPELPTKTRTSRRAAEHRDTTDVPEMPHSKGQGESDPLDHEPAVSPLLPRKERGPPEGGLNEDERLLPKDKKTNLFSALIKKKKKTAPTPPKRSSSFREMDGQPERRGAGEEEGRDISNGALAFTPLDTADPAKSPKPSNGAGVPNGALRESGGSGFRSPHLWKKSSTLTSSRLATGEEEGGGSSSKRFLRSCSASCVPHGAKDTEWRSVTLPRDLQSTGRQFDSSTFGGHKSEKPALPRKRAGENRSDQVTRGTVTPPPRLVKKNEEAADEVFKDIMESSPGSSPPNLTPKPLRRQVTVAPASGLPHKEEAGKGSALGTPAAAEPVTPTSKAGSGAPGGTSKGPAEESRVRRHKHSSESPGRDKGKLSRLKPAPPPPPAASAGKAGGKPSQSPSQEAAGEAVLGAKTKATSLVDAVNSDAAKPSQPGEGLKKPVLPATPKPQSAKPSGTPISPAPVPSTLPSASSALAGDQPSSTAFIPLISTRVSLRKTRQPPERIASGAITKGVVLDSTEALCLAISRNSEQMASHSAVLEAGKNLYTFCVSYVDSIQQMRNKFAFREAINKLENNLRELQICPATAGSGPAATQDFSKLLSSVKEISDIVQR
# Ras and Rab interactor 1/Tyrosine-protein kinase ABL1, sequence (Q13671 whole entry): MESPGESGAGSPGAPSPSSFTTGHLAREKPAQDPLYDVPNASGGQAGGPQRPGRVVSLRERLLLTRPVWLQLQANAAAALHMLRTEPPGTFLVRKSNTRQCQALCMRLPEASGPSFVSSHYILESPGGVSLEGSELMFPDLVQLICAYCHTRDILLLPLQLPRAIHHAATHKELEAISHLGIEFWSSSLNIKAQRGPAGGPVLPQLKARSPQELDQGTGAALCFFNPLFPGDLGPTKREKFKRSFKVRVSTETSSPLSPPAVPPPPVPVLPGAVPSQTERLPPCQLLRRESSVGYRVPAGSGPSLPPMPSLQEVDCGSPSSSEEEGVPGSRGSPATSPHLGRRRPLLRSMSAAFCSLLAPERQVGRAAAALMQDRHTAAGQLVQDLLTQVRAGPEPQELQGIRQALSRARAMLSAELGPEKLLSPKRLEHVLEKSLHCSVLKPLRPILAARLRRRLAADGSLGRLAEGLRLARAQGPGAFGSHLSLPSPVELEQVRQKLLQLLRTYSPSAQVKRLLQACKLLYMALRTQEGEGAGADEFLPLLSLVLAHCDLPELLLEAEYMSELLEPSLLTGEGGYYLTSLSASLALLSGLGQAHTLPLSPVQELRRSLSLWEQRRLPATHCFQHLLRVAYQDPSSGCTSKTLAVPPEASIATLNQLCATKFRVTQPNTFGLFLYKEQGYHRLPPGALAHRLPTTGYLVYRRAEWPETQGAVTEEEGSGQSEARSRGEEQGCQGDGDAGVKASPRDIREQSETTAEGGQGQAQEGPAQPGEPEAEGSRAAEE
smiles,measurement,setting,value
COc1ccc(NC(=O)CN(C)C(=O)Cc2ccc(S(=O)(=O)N3CCOCC3)s2)cc1,IC50,[1],2.03 µM (active)
CN(C)c1ccc(C=C2C(=O)OC3(CCCC3)OC2=O)cc1,IC50,[2],2.36 µM (active)
same,EC50,[3],44.2 µM (active)
same,IC50,[4],2.41 µM (active)
CCn1/c(=N\C(=O)CCS(=O)(=O)c2ccccc2)sc2cccc(OC)c21,AC50,INS1,5.08 µM (active)
same,AC50,[5],1.28 µM (active)
same,AC50,[6],3.05 µM (active)
same,IC50,Protein Wnt-3a,0.803 µM (active)
same,AC50,[7],> 70 µM (inactive)
Cc1nc2c(C(=O)N3CCN(c4ccccn4)CC3)cnn2c(C)c1Cc1cccc(Cl)c1,AC50,[8],3.39 µM (active)
CCc1ccc(C(=O)/C=C/c2ccc([N+](=O)[O-])o2)cc1,CC50,Vero [9],12.3 µM (active)
same,EC50,[10],2.25 µM (active)
same,EC50,BJ [11],> 150 µM (inconclusive)
same,EC50,BJ [12],0.57 µM (active)
same,EC50,BJ [13],5.72 µM (inconclusive)
same,EC50,BJ [14],4.02 µM (inconclusive)
same,EC50,[15],5.5 µM (inconclusive)
same,IC50,Vero [16],> 25 µM (active)
same,EC50,[17],1.69 µM (active)
O=C(N[C@H]1C/C=C\C[C@@H](CC(=O)N(CCO)Cc2ccccc2)C(=O)NC[C@H](c2ccccc2)OC1=O)OCC1c2ccccc2-c2ccccc21,IC50,Protein Wnt-3a,7.16 µM (active)
same,AC50,[18],2.24 µM (active)
CCCCCCCCCC[n+]1cccc2c3ccccc3ccc21,EC50,[19],> 150 µM (inactive)
same,EC50,[20],0.723 µM (active)
same,EC50,BJ [11],11.8 µM (active)
same,EC50,BJ [12],5.93 µM (active)
same,EC50,BJ [13],2.78 µM (active)
same,EC50,BJ [14],10.2 µM (active)
same,EC50,[15],8.72 µM (active)
same,IC50,Aminopeptidase N,89.6 µM (active)
same,AC50,[21],6.58 µM (active)
CC12CCC(=O)N1C(C(=O)Nc1nnc(SCc3ccccc3F)s1)CS2 (configuration not stated),IC50,[1],4.08 µM (active)
CCOc1ccc(N/N=C2\C(=O)Nn3c2nc2c(c3=O)CCCC2)cc1,IC50,[2],> 20 µM (inactive)
same,EC50,[3],> 53 µM (inactive)
same,IC50,[4],4.73 µM (active)
same,IC50,Nonstructural protein 1,> 100 µM (active)
CN1c2ccc(-c3cccc(F)c3)cc2[C@H]2[C@H](CCN2C(=O)c2ccncc2)[C@H]1CO,AC50,[8],0.816 µM (active)
CCc1nn(CCCC(=O)N(C)Cc2ccccc2)c(=O)c2cc3occc3n12,AC50,[8],4.73 µM (active)
